Here are results for two molecules from patent US9920069B2, “Compounds for treatment of fluoroquinolone-resistant bacteria” (The Board of Trustees of the University of Illinois, priority 2014, dated 2018).

≈ marks a conversion by molar mass, not a printed value. Entries after “also recorded” stand apart in the source; their conditions may differ. Where two headings read alike, the source gives them in different places. A value given as a limit tells only on which side of the number the result lay.

Usually AUC stands for the area under the concentration-time curve, a measure of exposure. Low readings indicate low exposure, high ones high exposure. The term Tmax denotes the time from dosing to the highest level.

Data set [1] relates to S. aureus ATCC 29213 derived strains. Nature of the data set: Resistant mutant generation (resistance frequency). As to conditions: development of DNM resistance in high level CIP resistant strains.
Experimental: Agar plates (15 cm) were prepared containing MH broth and antibacterial compounds at concentrations detailed in the FIG. 10. 40 mL of an overnight bacterial culture was centrifuged at 3000×g for 10 min and resuspended in 0.4 mL of sterile PBS. Plates were inoculated with 100 μL of bacteria in PBS by spreading with beads. […] To determine the number of viable colonies spread onto each plate, dilutions of the overnight culture in sterile PBS were spread onto nonselective MH agar plates and plates were incubated overnight at 37° C. before counting colonies.
In data set [2] the test system is VRE with the S83R mutation (GyrA). Nature of the data set: microbe, parasite or virus in culture. As to conditions: Enterococcus. Type of data set: cell-based.
Data set [3] relates to MRSA clinical isolate SAU.846. The data set can be described thus: MIC, microdilution broth. As to conditions: Staphylococcus aureus, MRSA, read-out: MIC. Type of data set: cell-based, S. aureus. As for the experimental part: (§1) Susceptibility testing was performed in triplicate using the microdilution broth method as outlined by the Clinical and Laboratory Standards Institute CLSI^52. MH broth was used.
In general terms: Dilution methods test growth across graded concentrations, often in twofold steps.

The subject of data set [4] is MRSA clinical isolate SAU.3024. Nature of the data set: MIC, microdilution broth. The data set is classed as cell-based, S. aureus. As to conditions: Staphylococcus aureus. The procedure: as §1
Another data set relates to E. coli MG1655. Nature of the data set: microbe, parasite or virus in culture. Particulars: Escherichia coli, gyrA none, parC none. The data set is classed as cell-based. The procedure:
E. coli MG1655 and the ΔAcrB strain were obtained from Prof. Cari Vanderpool at UIUC.
as §1

Data set [5] relates to VRE clinical isolate S557. The data set can be described thus: organism not typed. Type of data set: cell-based, E. faecium. As to conditions: read-out: MIC.
For the next data set, the system named is FQR MRSA (NRS3). The data set can be described thus: Mouse sepsis model, survival. Particulars: 50 mg kg^−1 oral gavage once-a-day 10 days; vs CIP and vehicle, P<0.005.
The target of the next data set is T1, human topoisomerase II (Homo sapiens, UniProt P11388).
T1 construct: purchased Inspiralis
T1 sequence (P11388 whole entry): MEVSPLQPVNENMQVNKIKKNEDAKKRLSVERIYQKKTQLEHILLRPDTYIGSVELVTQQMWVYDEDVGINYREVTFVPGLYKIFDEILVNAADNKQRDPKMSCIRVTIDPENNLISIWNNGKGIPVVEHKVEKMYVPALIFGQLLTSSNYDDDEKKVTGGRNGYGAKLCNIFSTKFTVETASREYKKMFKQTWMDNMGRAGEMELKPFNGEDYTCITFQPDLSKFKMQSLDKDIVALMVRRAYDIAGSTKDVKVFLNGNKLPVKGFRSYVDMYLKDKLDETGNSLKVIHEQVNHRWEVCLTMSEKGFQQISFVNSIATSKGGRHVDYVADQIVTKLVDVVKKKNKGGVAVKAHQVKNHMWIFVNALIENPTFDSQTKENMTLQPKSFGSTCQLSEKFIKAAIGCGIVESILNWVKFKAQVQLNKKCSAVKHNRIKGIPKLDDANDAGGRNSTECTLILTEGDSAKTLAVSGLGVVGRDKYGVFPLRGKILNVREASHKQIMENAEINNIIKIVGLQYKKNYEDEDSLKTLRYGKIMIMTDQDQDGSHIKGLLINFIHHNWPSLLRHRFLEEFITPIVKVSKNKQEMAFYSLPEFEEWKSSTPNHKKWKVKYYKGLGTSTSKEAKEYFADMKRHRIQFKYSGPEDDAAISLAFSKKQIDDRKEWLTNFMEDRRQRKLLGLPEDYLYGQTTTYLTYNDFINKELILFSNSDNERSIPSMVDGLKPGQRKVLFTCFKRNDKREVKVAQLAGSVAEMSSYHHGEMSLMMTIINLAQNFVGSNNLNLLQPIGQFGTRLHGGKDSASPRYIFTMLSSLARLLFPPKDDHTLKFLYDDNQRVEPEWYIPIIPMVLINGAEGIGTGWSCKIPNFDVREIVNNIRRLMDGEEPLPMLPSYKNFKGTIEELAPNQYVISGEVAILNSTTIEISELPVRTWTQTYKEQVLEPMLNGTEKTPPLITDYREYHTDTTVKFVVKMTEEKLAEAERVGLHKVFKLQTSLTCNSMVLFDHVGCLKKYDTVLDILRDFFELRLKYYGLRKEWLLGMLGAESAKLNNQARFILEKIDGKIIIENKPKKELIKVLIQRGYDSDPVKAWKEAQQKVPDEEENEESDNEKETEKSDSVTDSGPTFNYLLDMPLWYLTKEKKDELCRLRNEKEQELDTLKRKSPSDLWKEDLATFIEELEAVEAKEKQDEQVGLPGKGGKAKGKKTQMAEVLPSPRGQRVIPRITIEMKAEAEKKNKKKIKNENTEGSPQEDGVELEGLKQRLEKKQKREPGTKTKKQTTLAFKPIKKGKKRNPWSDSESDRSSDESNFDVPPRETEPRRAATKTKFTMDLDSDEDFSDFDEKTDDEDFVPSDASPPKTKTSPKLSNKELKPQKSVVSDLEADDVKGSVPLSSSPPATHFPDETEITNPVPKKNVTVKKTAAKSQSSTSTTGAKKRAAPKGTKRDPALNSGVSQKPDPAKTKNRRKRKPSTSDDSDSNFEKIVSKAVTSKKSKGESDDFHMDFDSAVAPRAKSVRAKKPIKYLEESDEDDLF
The data set can be described thus: Human topoisomerase decatenation assay. The data set is classed as biochemical. As to conditions: lowest inhibiting / highest without significant inhibition. As for the experimental part: The decatenation assay was performed with the Human Topo II Decatenation Assay Kit (Inspiralis) according to the manufacturer's instructions with minor modifications. First, a master mix was made containing 2 μL 10× assay buffer (500 mM Tris.HCl, pH 7.5, 1250 mM NaCl, 100 mM MgCl2, 50 mM DTT, 1000 μg/mL albumin), 0.67 μL 30 mM ATP, 1.34 μL 0.1 ng/μL kDNA, and 14.3 μL of nuclease free water per sample is made. DMSO or 30× compound is added to a 0.5 mL Eppendorf tube (0.67 μL per tube). The master mix is then added to each tube (18.3 μL per tube). Finally, 1 U of human topoisomerase (1 μL of 1 U/μL stock) is added to each tube for a final volume of 20 μL. The tubes are then incubated at 37° C. for 30 min. Reactions are stopped by the addition of 20 μL of 24:1 chloroform:isoamyl alcohol and 20 μL of stop dye (40% sucrose, 1 mM EDTA, 100 mM TrisHCl pH 7.5, 0.5 μg/mL bromophenol blue). Samples were run on 1% agarose gels containing 0.5 μg/mL ethidium bromide for 1 h at 110V or until the dye front was approximately halfway down the gel. Gels were imaged on a Molecular Imager Gel Doc XR+ (Biorad).

Data set [6] is described as follows: Pharmacokinetic assessment, serum by HPLC. Type of data set: in vivo, C57BL/6 mice. As to conditions: mouse serum. The procedure:
FIG. 13. Pharmacokinetic analysis of DNM, DNM-2, and DNM-3. C57/BL6 mice were treated with 50 mg kg^−1 DNM, DNM-2, or DNM-3 via oral gavage. After the indicated time points (15, 30, 60, 120, 240, and 480 min), mice were sacrificed and the serum concentrations of DNM, DNM-2, and DNM-3 was determined by HPLC.
The animal studies (PK, in vivo toxicity and in vivo efficacy) were carried out in strict accordance with the recommendations in the Guide for the Care and Use of Laboratory Animals of the National Institutes of Health. […] In these studies, 10-12 week old female C57BL/6 mice purchased from Charles River were used. DNM, DNM-2, and DNM-3 were formulated as slurries at 8.3 mg mL^−1 in 25% Cremophor RH40/water (v/v). Before beginning the pharmacokinetic assessment, mice were first tested for their ability to tolerate the DNM, DNM-2, and DNM-3 at 50 mg kg^−1 (p.o.). […] At specified time points, mice were sacrificed and blood was collected, centrifuged, and the serum was frozen at −80° C. until analysis. The proteins in a 50 μL aliquot of serum were precipitated by the addition of 50 μL of acetonitrile and the sample was centrifuged to remove the proteins. Serum concentrations of DNM, DNM-2, and DNM-3 were determined by HPLC. PK parameters were determined using GraphPad Prism Version 5.00 for Windows.

Take `Cc1cc(=O)n(C)c2c3c4c(cc12)c(C)cc(=O)n4CO3` [DNM, deoxynybomycin]: in data set [1], the resistance frequency is on record as 1×10^−10 to 7×10^−10. The MIC is at least 1 µg/mL in data set [2] and 0.031 µg/mL (≈ 0.11 µM) in data set [3].
With `CCn1c(=O)cc(C)c2cc3c(C)cc(=O)n4c3c(c21)OC4` [DNM-2], the MIC in [4] is 0.125 µg/mL (≈ 0.422 µM); in the data set on E. coli MG1655, over 24 µg/mL; in data set [5] it was 0.25 µg/mL (≈ 0.844 µM). Also, the “survival of mice infected with FQR MRSA (NRS3)” value in the data set on FQR MRSA (NRS3) is listed as “significant survival difference; also recorded: effective”. Further, the “concentration inhibiting human topoisomerase II” value at human topoisomerase II is over 30 µM. Moreover, the AUC in data set [6] (50 mg kg^−1 oral dose) and in [6] (50 mg kg^−1 oral gavage) was 44 µg·h/mL throughout. Besides, the “Cmax / peak serum concentration” value in data set [6] (50 mg kg^−1 oral dose) is 12.8 µg/mL. Also, the Cmax in data set [6] (50 mg kg^−1 oral dose, read-out: Cmax / peak serum concentration) is 42.6 µM; in data set [6] (50 mg kg^−1 oral gavage), 12800 ng/mL. Also, in data set [6] (50 mg kg^−1 oral gavage), the time to peak (Tmax) was 1.2 h. In data set [6] (50 mg kg^−1 oral gavage), the t1/2 was determined as 54 min.
